Reference: patent US10736927B2, “Pharmaceutical compositions for preventing or treating inflammatory bowel diseases” (INSERM (INSTITUT NATIONAL DE LA SANTE ET DE LA RECHERCHE …, priority 2015, dated 2020)

Columns and labels:
[1] = test system: DSS-exposed MWT and MCard9−/− mice; assay: DSS-induced colitis with antifungal treatment in MWT and MCard9−/− mice; format: in vivo, mouse; settings: fluconazole 0.5 mg/ml in drinking water from 1 week before DSS
Protocol: (§1) To induce colitis, the mice were administered drinking water supplemented with 2% (w/v) dextran sulfate sodium (DSS; MP Biomedicals, LLC, Aurora, Ohio, USA) for 7 days, and then allowed to recover by drinking unsupplemented water for the next 5 days (FIG. 7 a). 6-formylindolo[3,2-b]carbazole (Ficz) was obtained from Enzo Life Sciences (Lausen, Switzerland) resuspended in dimethyl sulfoxide (DMSO; Sigma-Aldrich) and was administered intraperitoneally 1 day after DSS administration (1 μg/mouse). Controls consisted of mice injected with DMSO vehicle alone. For the antifungal treatment, mice were fed 0.5 mg/ml fluconazole in the drinking water (Sigma-Aldrich) 1 week before DSS administration and every day thereafter, as previously described^18. Body weight, gross blood, and stool consistency were analyzed daily. The severity of colitis was assessed using the disease activity index (DAI) as previously described (6).

[2] = test system: AhR; assay: AhR activation luciferase reporter assay in H1L1.1c2 cells; format: cell-based, mouse; settings: bacterial culture supernatant, relative to culture media (FIG. 13a)
Protocol: The H1L1.1c2 cell line containing a stably integrated DRE-driven firefly luciferase reporter plasmid pGudLuc1.1 was provided by Michael S. Denison (University of California, Davis, Calif., USA) and has been described previously (47, 48). The cells were seeded in 96-well plates at 7.5×10^4 cells/well in 100 μl of complete DMEM medium (10% heat-inactivated fetal calf serum, 50 IU/ml penicillin, and 50 μg/ml streptomycin; Sigma-Aldrich) and cultured (37° C., 10% CO2) for 24 h prior to treatment. Fresh stools from healthy and IBD patients in remission and from WT, Card9^−/−, MWT, MCard9^−/−, Ido1^−/− and germ-free mice were collected, weighed and stored at −80° C. until processing. The stools were suspended, diluted to 100 mg/ml in PBS, centrifuged (5000 g, 15 min, 4° C.) and filtered (0.2 μm; VWR, Fontenay-sous-Bois, France). Lactobacillus and Bifidobacterium spp. were grown in MRS medium (BD Difco, Le Pont De Claix, France) supplemented with 10% cysteine (Sigma-Aldrich) at 37° C. under respectively aerobic and anaerobic conditions. Allobaculum stercoricanis (DSMZ 13633) was cultivated under the recommended culture condition listed in the DSMZ. Cultured supernatants of these bacteria were stored at −80° C. until processing. […] After adding 100 μl of Promega-stabilized luciferase reagent, the luciferase activity was measured using a luminometer. […]

[3] = test system: Card9−/−→GF mice; assay: DSS-induced colitis in Card9−/−→GF mice supplemented with three Lactobacillus strains; format: in vivo; settings: antagonist 100 μg/mouse i.p. three times per week, data not shown
Protocol: To induce colitis, mice were administered drinking water supplemented with 2% (wt./vol.) dextran sulfate sodium (DSS; MP Biomedicals, LLC, Aurora, Ohio, USA) for 7 days and were then allowed to recover by drinking unsupplemented water for the next 5 days. The 6-formylindolo(3,2-b)carbazole (Ficz; Enzo Life Sciences, Lausen, Switzerland) and the AHR antagonist CH223191 (AHR; Sigma-Aldrich) were resuspended in dimethyl sulfoxide (DMSO; Sigma-Aldrich) and administered intraperitoneally. Ficz was injected 1 day after DSS administration (1 μg/mouse). For the AHR treatment, WT→GF and Card9−/−→GF mice (4- to 5-week-old females) were treated (100 μg/mouse) three times per week until euthanization. Controls consisted of mice injected with DMSO vehicle alone for the Ficz and AHR treatment groups. […] The resulting sequences were aligned, inspected by eye, and compared with the online tool BLAST. Strains were identified based on the highest hit scores. These strains were deposited in the Collection Nationale de Cultures de Microorganismes (CNCM) of the Institut Pasteur and named L. murinus CNCM I-5020, L. reuteri CNCM I-5022, and L. taiwanensis CNCM I-5019. […] In all treatments, body weight, blood in stool, and stool consistency were analyzed daily. The severity of colitis was assessed using the disease activity index (DAI) as previously described (6).

[4] = test system: DSS-exposed MCard9−/− mice; assay: DSS-induced colitis with Ficz injection in microbiota-colonized germ-free mice; format: in vivo; settings: Ficz 1 μg/mouse i.p. 1 day after DSS; Ficz-treated MCard9−/− mice vs non-treated counterparts during recovery
Protocol: Fresh stool samples from WT or Card9^−/− mice were immediately transferred to an anaerobic chamber, in which the stool samples were suspended and diluted 1:100 in LYHBHI medium (BD Difco, Le Pont De Claix, France) supplemented with cellobiose (1 mg/ml; Sigma-Aldrich, St. Louis, Mo., USA), maltose (1 mg/ml; Sigma-Aldrich), and cysteine (0.5 mg/ml; Sigma-Aldrich). Four- to five-week-old WT germ-free mice were randomly assigned to two groups and inoculated via oral gavage with 400 μl of fecal suspension from the conventional wild-type (MWT) or Card9^−/− (MCard9^−/−) mice and maintained in separated isolators. One aliquot of each fecal suspension was stored at −80° C. […]
To induce colitis, the mice were administered drinking water supplemented with 2% (w/v) dextran sulfate sodium (DSS; MP Biomedicals, LLC, Aurora, Ohio, USA) for 7 days, and then allowed to recover by drinking unsupplemented water for the next 5 days (FIG. 7 a). […] Body weight, gross blood, and stool consistency were analyzed daily. The severity of colitis was assessed using the disease activity index (DAI) as previously described (6).
Colon samples for histological studies were maintained at 4° C. in 4% paraformaldehyde and then embedded in paraffin. […] The number of cleaved caspase-3-positive cells in 100 μm of analyzed colon was counted. Ki67 was quantified as a percentage of the total height of each crypt. […]

[5] = test system: Il22, RegIIIγ, RegIIIβ, Il17A transcript expression in colon; assay: Colon transcript expression by qRT-PCR in DSS-exposed mice treated with Ficz; format: in vivo, mouse
Protocol: as §1
Total RNA was isolated from colon samples using an RNeasy Mini Kit (Qiagen, Hilden, Germany), according to the manufacturer's instructions. Quantitative RT-PCR was performed using SuperScript II Reverse Transcriptase (Life Technologies, Saint Aubin, France) and then a Takyon SYBR Green PCR kit (Eurogentec, Liege, Belgium) in a StepOnePlus apparatus (Applied Biosystems, Foster City, Calif., USA) with specific mouse oligonucleotides. We used the 2^−ΔΔCt quantification method with mouse Gapdh as an endogenous control and the WT or MWT group as a calibrator.

[6] = test system: cytokines secreted by colon explants; assay: Cytokines secreted by colon explants (ELISA) of DSS-exposed mice treated with Ficz; format: in vivo, mouse
Protocol: as §1
MLNs and spleens were sieved through a 70-μm cell strainer (BD, Le Pont De Claix, France) in complete RPMI 1640 medium (10% heat-inactivated fetal calf serum, 2 mM L-glutamine, 50 IU/ml penicillin, and 50 μg/ml streptomycin; Sigma-Aldrich), and 1×10^6 cells per well were cultured (37° C., 10% CO2) for 48 h with stimulation by phorbol 12-myristate 13-acetate (PMA, 50 ng/ml; Sigma-Aldrich) and ionomycin (1 μM; Sigma-Aldrich). The culture supernatant was frozen at −80° C. until processing. To measure the cytokine levels in the colonic explants, tissues from the medium colon were isolated and rinsed in phosphate buffered saline (PBS; Gibco, Paisley, United Kingdom). The colonic explants were cultured (37° C., 10% CO2) overnight in 24-well tissue culture plates (Costar, Corning, Amsterdam, The Netherlands) in 1 ml of complete RPMI 1640 medium. The culture supernatants were collected and stored at −80° C. until processing. ELISAs were performed on the supernatants to quantify mouse cytokines according to the manufacturer's instructions: IL10, IL17A, and IFNγ (Mabtech, Nacka Strand, Sweden); IL22 (eBioscience, San Diego, Calif., USA); and IL6 (R&D Systems, Minneapolis, Minn., USA). For the colonic explants, cytokine concentrations were normalized according to the dry weight of each colonic explant.

[7] = defect in MCard9−/− mice, Ficz 1 μg/mouse i.p.
[8] = Ficz-treated vs non-treated MCard9−/− mice

OC(Cn1cncn1)(Cn1cncn1)c1ccc(F)cc1F [antifungal, fluconazole]
colitis phenotype (weight loss and DAI) of MCard9−/− vs MWT mice [1]: did not modify the phenotype

Lactobacillus reuteri
AhR activation by cultured supernatants [2]: strongly activate AhR

Cc1ccccc1N=Nc1ccc(NC(=O)c2ccnn2C)c(C)c1 [AHR antagonist, CH223191]
effects of the three Lactobacillus strains in the presence of an AHR antagonist [3]: abrogated

O=Cc1c2c(cc3c1=Nc1ccccc1-3)=Nc1ccccc1-2 [Ficz, 6-formylindolo[3,2-b]carbazole]
colitis severity (body weight loss, histology score, colon shortening) [4]: weaker colitis severity
Il17 expression ([5]; colon, Ficz treatment): not altered
Il22 colonic expression [5, 7]: rescued
RegIIIβ colonic expression [5, 7]: rescued
RegIIIγ colonic expression [5, 7]: rescued
IFNgamma in the colon [6, 8]: No significant differences
IL6 in the colon [6, 8]: No significant differences
IL10 in the colon [6, 8]: No significant differences
Il17 production ([6]; colon explants cultured 24 h, Ficz treatment): not altered
